# Measured values taken from patent US3933805A, “S(IV)-benzo-1,2,4-thiadiazine compounds and process for their preparation” (Biersdorf, Akteingesellschaft, priority 1973, dated 1976).
# How the values were obtained:
# [1] = test system: spontaneous mobility; test: Decrease of spontaneous mobility; assay type: in vivo; details: Mus musculus, po; mice
# Source text: (§1) Central depressing effects in mice (ED50 in mg/kg p.o.)
# (§2) Example spontaneous Increase in net^(3)
# (1) Method described in R.A. Turner, Screening Methods in Pharmacology, […]
# [2] = test system: Minimum Electroshock Threshold; test: Minimum Electroshock Threshold (increase in net); assay type: in vivo; details: Mus musculus, po; mice
# Source text: as §1, §2
# (3) Minimum Electroshock Threshold, test arrangement according to Brown,
# Schiffmann, Swinyard and Goodman; J.Pharmacol. Exptl. Ther. 107, 273
# [3] = test system: guinea pig small intestine; test: Spasmolytic effect on guinea pig small intestine in vitro against Acetylcholine; assay type: cell-based; details: Cavia porcellus, Acetylcholine 0.1 γ/ml, read-out: ED50, spasmolytic effect against Acetylcholine
# Source text: (§3) Spasmolytic effect on guinea pig small intestine (1)
# (§4) (1) R. Magnus, Pflugers Arch. ges. Physiol. 102, 123 (1904)
# [4] = test system: guinea pig small intestine; test: Spasmolytic effect on guinea pig small intestine in vitro against Histamine; assay type: cell-based; details: Cavia porcellus, Histamine 0.1 γ/ml, read-out: ED50, spasmolytic effect against Histamine
# Source text: as §3, §4
# [5] = test system: pentobarbital sleep; test: Prolongation of pentobarbital sleep; assay type: in vivo; details: Mus musculus, po, mice, p.o., read-out: ED50, increase in sleeping (prolongation of pentobarbital sleep)
# Source text: as §1, §2
# (2) Prolongation of pentobarbital sleep, R.A. Turner, Screening Methods i
# Pharmacology, N.Y. 1965, p. 90.
# [6] = test system: guinea pig small intestine; test: Spasmolytic effect on guinea pig small intestine in vitro against Barium chloride; assay type: cell-based; details: Cavia porcellus, Barium chloride 200 γ/ml, read-out: ED50, spasmolytic effect against Barium chloride
# Source text: as §3, §4
IC50 [3],IC50 [4],IC50 [6],SMILES,ED50 [1],ED50 [2],ED50 [5]
2.2 µg/mL,0.04 µg/mL,0.72 µg/mL,CCCN(CCC)CC1=Nc2cccc(Cl)c2S(=O)(c2ccc(Cl)cc2)=N1 (stereo not drawn) [Example 24],16 mg/kg,115 mg/kg,20 mg/kg
2.2 µg/mL,,0.72 µg/mL,CCCN(CCC)CC1=Nc2ccc(Cl)cc2S(=O)(c2ccc(Cl)cc2)=N1 (stereo not drawn) [Example 22],28 mg/kg,,16 mg/kg
,,,O=S1(c2ccc(Cl)cc2)=NC(CNCCO)=Nc2ccccc21 (stereo not drawn) [Example 21],46 mg/kg,,9 mg/kg
1.1 µg/mL,0.08 µg/mL,0.9 µg/mL,CCCN(CCC)CC1=Nc2ccc(Cl)cc2S(=O)(c2cccc(C)c2)=N1 (stereo not drawn) [Example 23],,,
,,,O=S1(c2ccccc2)=NC(CN2CCCC2)=Nc2ccc(Cl)cc21 (stereo not drawn) [Example 6],70 mg/kg,68 mg/kg,38 mg/kg
2.7 µg/mL,0.96 µg/mL,2.2 µg/mL,CCCN(CCC)CC1=Nc2cc(C)ccc2S(=O)(c2ccccc2)=N1 (stereo not drawn) [Example 15],76 mg/kg,> 500 mg/kg,8.5 mg/kg
,,,COCCN(C)CC1=Nc2ccc(Cl)cc2S(=O)(c2ccccc2)=N1 (stereo not drawn) [Example 14],> 250 mg/kg,46 mg/kg,28 mg/kg
,,,CN(C)CC1=Nc2ccc(Cl)cc2S(=O)(c2ccccc2)=N1 (stereo not drawn) [Example 8],96 mg/kg,46 mg/kg,16 mg/kg
,,,O=S1(c2ccccc2)=NC(CNCCO)=Nc2ccc(Cl)cc21 (stereo not drawn) [Example 7],23 mg/kg,126 mg/kg,15 mg/kg
,,,CCNCC1=Nc2ccc(Cl)cc2S(=O)(c2ccccc2)=N1 (stereo not drawn) [Example 13],240 mg/kg,42 mg/kg,25 mg/kg
,,,CCN(CC)CC1=Nc2ccc(Cl)cc2S(=O)(c2ccccc2)=N1 (stereo not drawn) [Example 4],78 mg/kg,28 mg/kg,46 mg/kg
,,,O=S1(c2ccccc2)=NC(CNCCO)=Nc2ccccc21 (stereo not drawn) [Example 19],> 250 mg/kg,> 500 mg/kg,2 mg/kg
,,,COCCNCC1=Nc2ccc(Cl)cc2S(=O)(c2ccccc2)=N1 (stereo not drawn) [Example 9],> 250 mg/kg,32 mg/kg,58 mg/kg
4 µg/mL,,1.2 µg/mL,CCCN(CCC)CC1=Nc2ccccc2S(=O)(c2ccccc2)=N1 (stereo not drawn) [Example 18],186 mg/kg,134 mg/kg,3.1 mg/kg
,,,O=S1(c2ccccc2)=NC(CN2CCOCC2)=Nc2ccc(Cl)cc21 (stereo not drawn) [Example 5],> 250 mg/kg,92 mg/kg,46 mg/kg
2.6 µg/mL,,,CCCN(CCC)CC1=Nc2ccccc2S(=O)(c2ccc(Cl)cc2)=N1 (stereo not drawn) [Example 20],31 mg/kg,> 250 mg/kg,2 mg/kg
,,,"CCCN(CCC)CC1=Nc2ccccc2S(=O)(c2ccc(N)cc2)=N1 (stereo not drawn) [Example 2, 3-Di-(n-propyl)-aminomethyl-1-(4'-aminophenyl)-benzo-1,2,4-thiadiazine-1-oxide]",> 250 mg/kg,,8 mg/kg
0.69 µg/mL,,0.69 µg/mL,CCCN(CCC)CC1=Nc2ccc(C)cc2S(=O)(c2ccc(Cl)cc2)=N1 (stereo not drawn) [Example 25],31 mg/kg,21 mg/kg,> 250 mg/kg
,,,"CCCN(CCC)CC1=Nc2ccc(Cl)cc2S(=O)(c2ccccc2)=N1 (stereo not drawn) [Example 1, 7-Chloro-3-di-(n-propyl)aminomethyl-1-phenyl-benzo-1,2,4-thiadiazine-1 oxide]",98 mg/kg,38 mg/kg,22 mg/kg
0.9 µg/mL,,1.7 µg/mL,O=S1(c2ccccc2)=NC(CN2CCCCC2)=Nc2ccc(Cl)cc21 (stereo not drawn) [Example 3],84 mg/kg,34 mg/kg,34 mg/kg
